The source of these data is patent US5498405A, “Indole alkaloids useful as UV protective and anti-inflammatory agents” (The Regents of the University of California, priority 1995, dated 1996).

For one data set, the system named is myeloperoxidase (MPO). In words: Myeloperoxidase (MPO) enzyme assay in ear biopsies from treated mice. The format is in vivo, mouse. The note with it: pooled ear bores. The source says: Myeloperoxidase (MPO) Enzyme Assay
The neutrophil-specific marker released from primary granules, myeloperoxidase (MPO), in ear biopsies from treated and untreated mouse ears was extracted and quantitated according to a modified method of Bradley, P. O., Priebat, D. A., Christensen, R. D. and Rothstein, G., "Measurement of cutaneous inflammation estimation of neutrophil content with an enzyme marker," J. Invest Dermatology 78: 206-209, 1982. This enzyme is indicative of the extravasation of pro-inflammation neutrophils from blood into the skin. Ear bores from each treatment group from mouse ear edema assays were pooled and homogenized in 80 mM sodium phosphate buffer (pH 5.4) containing 0.5% hexadecyltrimethylammonium bromide in a siliconized glass test tube for 1 min. at 0° C. using a Brinkman Polytron. The mixtures were centrifuged at 10,000×g at 4° C. for 30 min. Samples (10 μl) from each group were then assayed in a 96-well microtiter plate. The assay was initiated by adding 250 μl of o-dianisi-dine/phosphate reagent (0.28 mg of dianisidine added to 1 ml of 50 mM sodium phosphate containing […]) to each well. After a 30 minutes incubation of 37° C., the plates were read at 450 nm on a Molecular Devices microplate reader. Diluted control biopsies were utilized to develop a standard curve. Optical density values from drug-treated groups were compared to control groups to determine % of control values of enzyme activity.

The next data set can be described thus: Solubility. The data set is classed as physicochemical. Particulars: after mild reduction (e.g., ascorbic acid).
Data set [1] concerns mouse ear edema (Phorbol 12-myristate 13-acetate, PMA). The data set can be described thus: Inhibition of PMA-induced inflammation (edema) of the mouse ear. The format is in vivo. The note with it: PMA 2 μg/ear, 3 hours, 20 minutes. The method, then: Inhibition of Inflammation (Edema) of the Mouse Ear
Compounds 1 and 1R were topically applied in acetone to the inside pinnae of the ears of mice in a solution containing the edema-causing irritant, Phorbol 12-myristate 13-acetate (PMA). […] After 3 hours, 20 minutes incubation, the mice were sacrificed, the ears removed and bores taken and weighed. Edema was measured by subtracting the weight of the right ear (acetone control) from the weight of the left ear (treated). Results are recorded as % decrease (inhibition)or % increase (potentiation) in edema relative to the PMA control group edema.

Consider `O=C1C(=Cc2ccc(O)cc2)c2[nH]c3ccccc3c2C1=C1C(=O)C(=Cc2ccc(O)cc2)C2=Nc3ccccc3C21` (centres unmarked) [Compound 1R], for which the “MPO Enzyme Activity, % of Control” value came out at 81% in the data set on myeloperoxidase (MPO) (dose 1 ug/ear), 82% with myeloperoxidase (MPO) (dose 5 ug/ear), 32% in the data set on myeloperoxidase (MPO) (dose 10 ug/ear) and 10% with myeloperoxidase (MPO) (dose 100 ug/ear). In addition, in “Solubility”, the “Solubility properties relative to Compound 1” value was “slightly improved solubility properties”. Further, the “Dose Response Inhibition of Mouse Ear Edema” value amounted to 22% in data set [1] (topical dose 1 ug/ear); 17% in data set [1] (topical dose 5 ug/ear); 49% in data set [1] (topical dose 10 ug/ear); 94% in data set [1] (topical dose 50 ug/ear); 95% in data set [1] (topical dose 100 ug/ear). Moreover, in data set [1] (topical dose 50 ug/ml (so in the source)), the “Inhibition of Mouse Ear Edema” value was found to be 94%.
